Reference: patent publication US9447029B2, “Fluorinated arylalkylaminocarboxamide derivatives” (NEWRON PHARMACEUTICALS S.P.A., priority 2011, dated 2016)
Counter-ions that a name gives are not always drawn.

Tests used:
[1] = tested on: TTXs sodium channels (ND7/23 cells); assay: TTXs-sodium channel influx assay (fluorescence, membrane potential kit); format: cell-based, rat; details: veratridine 100 μM
Method: ND7/23 rat dorsal root ganglion-derived cell line endogenously expresses a mixed population of TTXs sodium channels (such as Nav1.3, Nav1.2, Nav1.1, Nav1.6). These cells lack of TTXr sodium channels as shown by the absence of their respective transcripts. ND7/23 cells are grown in Dulbecco's Modified Eagle Medium (DMEM, Invitrogen, CA—USA) supplemented with 10% Foetal Bovine Serum (FBS, Invitrogen, CA—USA) and 1 mM sodium piruvate. The cells are seeded at 50,000 cells/well on 96 poly-L-lysine-coated plates and further incubated for 18-24 h before use.
The Membrane Potential Kit Assay (Molecular Devices, CA—USA), based on a negatively charged fluorescent dye able to monitor changes in membrane potential caused by the sodium influx due to the channel opening, is used for the assay.
Cells are incubated with the dye loading for 30 minutes at 25° C. Then, 100 nM of the toxin Anemonia sulcata (used as enhancer of the channel opener response) alone or in the presence of TTX (as reference standard) or test compound are added for further 15 minutes.
The fluorescence (excitation: 530 nm, emission: 565 nm wavelength) is measured before and after (40-45 s) the automated injection of the sodium channel opener veratridine (100 μM) using a Victor plate reader (Perkin Elmer, MA—USA).
The inhibition curves are calculated from 5 concentrations, each in triplicate, and the IC50 determined using a linear regression analysis.
The results, obtained with some compounds which are representative of the entire class of compounds of the invention are reported in Table 1.

CYP2D6 = CYP2D6 (Homo sapiens (Human), UniProt P10635); assay: Inhibition of Cytochrome P4502D6 (CYP2D6) using Supersomes; format: in vitro ADME; details: AMMC substrate, read-out: IC50 (Fluorinated derivative)
Method: The inhibition of Cytochrome P4502D6 (CYP2D6) is assessed by performing in vitro inhibition studies using Supersomes, microsomes derived from baculovirus infected insect cells; the baculoviruses are engineered to express one or more drug metabolizing enzyme cDNAs. Supersomes catalyze the same enzymatic reactions as human liver microsome enzymes, but they contain much higher enzyme activity than other microsome sources (Crespi C. L. and Penman B. W., Advances Pharmacology, 43, 171-188 (1997); Crespi C. L. and Miller V. P., Analytical Biochemistry, 248, 188-190 (1997)).
Kits with Supersomes are Supplied by GENTEST (MA, USA).
Test compound is dissolved in DMSO 500× the highest final concentration desired in the IC50 assay. 30 ml of deionized water is pre-warmed to 37° C. and all kit components are placed on ice. For each well of column 1, 149.4 μL of NADPH-Cofactor Mix, (187.5 μl of Cofactors, 150 μl of G6PDH, 100 μl of Control Protein and 14.56 ml of 37° C. water) are added.
In each well from Column 2 to 12, 100 μl of Cofactor/DMSO mix (40 μL DMSO in 9.96 ml of NADPH-Cofactor Mix) are added. To each well of column 1, 0.6 μl of test compound or positive control are added. 50 μl from each well of column 1 are serially diluted to column 8. The extra 50 μl from column 8 are discarded. The plate is covered and pre-incubated at 37° C. for 10 minutes.
Preparation of enzyme/substrate mix: 7.92 ml of pre-warmed deionized water, 75 μl of enzyme, 3 μl of 10 mM AMMC and 2 ml of pre-warmed buffer are mixed.
After the pre-incubation time (10′), 100 μl of enzyme/substrate mix to each well from column 1 to 10 are added. The plate is incubated at 37° C. for 30 minutes. After this time, 75 μl of Stop Reagent to each well are added. For blank controls, 100 μl of enzyme/substrate mix are added to columns 11 and 12.
Plates are read at the Victor plate reader (Perkin Elmer, MA—USA) at 390 nm excitation and 460 nm emission wavelengths.

CYP2D6, sequence (P10635 whole entry): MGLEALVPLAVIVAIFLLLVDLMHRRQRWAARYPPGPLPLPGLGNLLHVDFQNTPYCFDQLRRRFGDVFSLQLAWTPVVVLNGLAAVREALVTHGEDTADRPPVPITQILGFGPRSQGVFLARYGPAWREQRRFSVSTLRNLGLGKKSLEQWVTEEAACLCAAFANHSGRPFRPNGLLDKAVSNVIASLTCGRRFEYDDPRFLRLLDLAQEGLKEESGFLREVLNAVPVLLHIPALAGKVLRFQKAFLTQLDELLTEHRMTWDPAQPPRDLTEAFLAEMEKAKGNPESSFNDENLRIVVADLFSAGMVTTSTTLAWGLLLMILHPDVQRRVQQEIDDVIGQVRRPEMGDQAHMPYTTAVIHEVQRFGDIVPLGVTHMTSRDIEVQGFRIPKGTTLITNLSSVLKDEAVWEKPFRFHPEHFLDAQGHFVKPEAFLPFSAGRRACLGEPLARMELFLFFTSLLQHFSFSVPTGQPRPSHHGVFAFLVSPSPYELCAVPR

Compound: O=C(CNCC(F)(F)c1cccc(OCCCC(F)(F)F)c1)N1CCOCC1 [Example 1-21, 2-{2,2-Difluoro-2-[3-(4,4,4-trifluorobutoxy)-phenyl]-ethylamino}-1-(morpholin-4-yl)-ethanone, hydrochloride]
- IC50 [1]: 7.2 µM
- IC50 (CYP2D6): > 40 µM
